Patent US6100236A, “Method and composition for treating thrombosis” (La Jolla Cancer Research Foundation, priority 1995, dated 2000)
“And” between values parts separate entries of the source, which are not always exact repeats. Equal values may be shown once.

Columns and labels:
platelets [1] = assay: Ex vivo platelet aggregation after peptide injection in canine coronary thrombosis model; set-up: species or system dog; details: for Ex vivo reduction of aggregation relative to control levels: 3 mg/kg
Description: For all ex vivo studies (see FIG. 3), control aggregation values were standardized to the percentages of light transmission observed in PRP and PPP samples (0% and 100%, respectively).
(§1) Animals were randomly assigned to two treatment groups: vehicle control (i.e., normal saline) or RGD peptides at various concentrations. Peptides were administered intra-atrially in both bolus and continuous injections. […] A continuous infusion of the same peptide was then started immediately after completion of this initial injection. Animals that received a 5 mg/kg bolus. also received a 5 mg/kg/hr infusion, whereas animals that received a 10 mg/kg bolus also received a 10 mg/kg/hr infusion. The anti-thrombotic effects of the peptides were monitored until 30 minutes after the occurrence of a persistent, occlusive thrombus or five hours after the initiation of electrical stimulation (whichever resulted first). If an occlusive thrombus had not developed within four hours after the initiation of current, the peptide infusion was stopped.
Platelet counts and ex vivo aggregation studies were performed one hour before and 1, 3, and 5 hours after application of anodal direct current.
Platelet aggregation was also determined ex vivo at one, three, and five hours after current application. […]
The average aggregation values determined in these studies for all of the peptide treatments are depicted in FIG. 3. […] The control responses in these studies were 70-80% of maximum. […] Here the control responses were 55-80% of maximum.

[2] = tested on: Electrically induced canine coronary thrombosis; assay: Electrically induced canine coronary thrombosis, time to full occlusion; type: in vivo, dog
Description: Male mongrel dogs weighing 14 to 20 kg were selected based on proper aggregation of their platelets in response to arachidonic acid, collagen, and adenosine disphosphate (ADP) and based on similar weights and hemodynamic properties.
Before surgery, the animals were anesthetized with sodium pentobarbital (30 mg/kg, i.v.) and then intubated and ventilated on room air with positive pressure using a respirator (Harvard Apparatus, S. Natick, Mass.) at a volume of 30 ml/kg and a frequency of 12 breaths/min. Surgery, performed under aseptic conditions, was begun with the placement of cannulae into the left carotid artery and jugular vein for monitoring arterial blood pressure (Statham P23 pressure transducer, Gould, Inc., Cardiovascular Products, Oxnard, Calif.) and administering intravenous fluids.
The heart was exposed via a left thoracotomy through the 5th intercostal space. A 2-cm segment of the left circumflex coronary artery (LCCA) was isolated from surrounding tissue by blunt dissection. […] The intra-coronary electrode was constructed by attaching a 25-gauge hypodermic needle tip to a 30-gauge Teflon-insulated silver-coated copper wire. The mechanical occluder was constructed of stainless steel in a C shape with a Teflon screw (2 mm diameter) on top. It was adjusted to control vessel circumference and decrease the reactive hyperemic flow due to a 10-sec (full) occlusion by 50-70% without affecting basal coronary blood flow (FIG. 1). A monopolar epicardial electrode was sutured to the surface of the ventricle in the region of LCCA distribution to monitor ischemic changes in the electrocardiogram (ECG). The left atrium was cannulated with polythylene tubing for administration of the peptide. Continuous recordings of blood pressure, limb lead II ECG, epicardial electrogram, and mean and phasic LCCA blood flow were obtained on a Model 7 polygraph (Grass Instrument Co., Quincy, Mass.).
One hour after the completion of surgery, a 100 micro-amp continuous anodal direct current delivered from a 9 volt nickel-cadmium battery was applied to the intimal surface of the LCCA. The anode of the battery was in series with a 250,000 ohm potentiometer and the intraluminal coronary artery electrode. The electric circuit was completed by placing the cathode in a subcutaneous site. Electrical stimulation was applied for three hours. At the conclusion of each experiment, the heart was fibrillated electrically and quickly removed, and the LCCA was dissected free as far as possible to verify the position of the implanted anodal electrode.
as §1
Coronary thrombosis was quantified as the time to full occlusion. The effects of the various peptide treatments on coronary thrombosis is illustrated in FIG. 4.

[3] = molecular target: T1, Fibronectin receptor (Fn-R) (Homo sapiens, UniProt P05556+P08648); assay: Competitive ELISA for fibronectin receptor binding; details: purified receptor from human placenta, read-out: FnR Binding (IC50)
T1 construct: similarly purified from (100 mM) octyl glucoside-extracted human placenta; from tissue; host or cells: human placenta
T1 sequence (P08648 42-894 limits assumed): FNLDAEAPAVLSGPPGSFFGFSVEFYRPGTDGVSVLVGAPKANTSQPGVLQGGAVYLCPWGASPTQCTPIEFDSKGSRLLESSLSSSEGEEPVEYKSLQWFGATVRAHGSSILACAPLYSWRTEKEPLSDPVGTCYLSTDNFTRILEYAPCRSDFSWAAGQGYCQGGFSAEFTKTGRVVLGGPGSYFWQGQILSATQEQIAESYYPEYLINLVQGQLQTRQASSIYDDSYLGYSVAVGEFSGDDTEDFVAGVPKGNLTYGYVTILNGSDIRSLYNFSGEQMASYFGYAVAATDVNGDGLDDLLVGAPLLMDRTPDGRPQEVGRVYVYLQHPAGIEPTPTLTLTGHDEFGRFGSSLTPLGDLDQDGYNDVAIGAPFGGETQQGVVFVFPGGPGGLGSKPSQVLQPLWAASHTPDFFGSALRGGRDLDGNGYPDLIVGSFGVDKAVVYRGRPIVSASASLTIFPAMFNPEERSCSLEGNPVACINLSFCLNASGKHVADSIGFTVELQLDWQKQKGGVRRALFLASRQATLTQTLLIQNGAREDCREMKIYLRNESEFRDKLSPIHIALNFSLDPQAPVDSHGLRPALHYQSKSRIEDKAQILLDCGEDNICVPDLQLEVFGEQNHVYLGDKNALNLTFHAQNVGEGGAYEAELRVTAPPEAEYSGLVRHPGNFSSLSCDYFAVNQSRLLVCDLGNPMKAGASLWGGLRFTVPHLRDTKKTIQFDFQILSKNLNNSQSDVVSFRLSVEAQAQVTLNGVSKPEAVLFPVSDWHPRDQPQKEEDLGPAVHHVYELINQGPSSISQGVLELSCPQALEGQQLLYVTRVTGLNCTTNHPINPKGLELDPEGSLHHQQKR
T1 sequence (P08648 895-1049 partner limits assumed): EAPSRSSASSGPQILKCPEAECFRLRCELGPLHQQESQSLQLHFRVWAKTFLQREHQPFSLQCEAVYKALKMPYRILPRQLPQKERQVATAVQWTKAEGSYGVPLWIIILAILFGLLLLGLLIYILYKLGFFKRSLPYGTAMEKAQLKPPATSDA
T1 sequence (P05556 21-798): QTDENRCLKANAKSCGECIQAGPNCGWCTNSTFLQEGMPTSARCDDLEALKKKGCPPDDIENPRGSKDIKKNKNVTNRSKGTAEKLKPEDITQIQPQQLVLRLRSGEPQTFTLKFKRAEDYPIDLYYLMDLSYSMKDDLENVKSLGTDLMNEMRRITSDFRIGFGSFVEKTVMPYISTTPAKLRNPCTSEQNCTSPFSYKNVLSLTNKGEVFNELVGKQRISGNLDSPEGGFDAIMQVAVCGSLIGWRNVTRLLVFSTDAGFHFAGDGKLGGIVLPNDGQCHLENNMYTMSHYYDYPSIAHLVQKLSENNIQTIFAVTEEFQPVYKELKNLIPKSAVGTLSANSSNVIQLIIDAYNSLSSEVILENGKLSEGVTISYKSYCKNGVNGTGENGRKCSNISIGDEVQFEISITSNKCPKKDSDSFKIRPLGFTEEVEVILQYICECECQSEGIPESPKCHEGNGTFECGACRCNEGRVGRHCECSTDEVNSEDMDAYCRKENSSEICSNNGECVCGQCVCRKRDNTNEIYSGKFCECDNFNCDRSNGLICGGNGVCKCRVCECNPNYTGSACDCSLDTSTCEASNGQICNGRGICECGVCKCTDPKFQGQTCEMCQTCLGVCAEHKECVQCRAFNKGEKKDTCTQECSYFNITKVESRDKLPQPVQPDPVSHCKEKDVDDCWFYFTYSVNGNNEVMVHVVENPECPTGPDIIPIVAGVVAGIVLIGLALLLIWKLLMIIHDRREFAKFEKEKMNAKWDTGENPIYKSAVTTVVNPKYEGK
Description: Peptide binding to purified Fn-R was determined by using a competitive enzyme-linked immunosorbent assay (ELISA) in which fibronectin is immobilized and the binding of solubilized Fn-R is detected with labeled anti-FnR antibodies in the presence of various concentrations of peptide analogue.
Microtiter plates were coated with 110 μl of human fibronectin (at 2 μg/ml) in TBS. The plates were washed three times with TBS that contained 0.05% Tween 20. If necessary, peptides were added after this washing in 10 microliter aliquots. The fibronectin receptor was then added in 2-fold serial dilutions with TBS containing 20 mM octyl glucoside and 2 mM MnCl2. The plates were incubated for three hours at room temperature, washed with 200 μl of the above TBS-Tween buffer. 100 μl of affinity-purified rabbit anti-human fibronectin receptor antibody was added to the wells and the plates were incubated for an additional two hours, washed twice with TBS-Tween and then distilled water. Affinity-purified goat anti-rabbit IgG conjugated to horseradish peroxidase (100 μl) was then added to each well. Bonding reactions were incubated for 16 hours at room temperature. The following day, the plates were washed twice with TBS-Tween and then distilled water. […]
IC50 s for FnR were determined by ELISA (Example III).

platelets [4] = assay: Ex vivo ADP-stimulated platelet aggregation in baboon PRP; details: animal 2; ADP 10 μm; PRP at 0, 1 and 2 hours
Description: At one- and two-hour time points, template bleeding times were measured, and blood samples were drawn to assess the hematology aggregation studies. Platelet aggregation studies were performed as described in Example V using ADP as the stimulus.
In addition, platelet aggregation studies were conducted on PRP derived from the second animal. Whole blood was drawn at three time points (0, 1 and 2 hours) of both control and experimental shunts.

[5] = 10 mg/kg bolus + 10 mg/kg/hr infusion, intra-atrial
[6] = 10 mg/kg injection, all three time points

Substance: RPenGHRGDWRCR
- Ex vivo inhibition of platelet activation by collagen (platelets [1]; 5 mg/kg injection): near-maximal inhibition
- Ex vivo platelet response to ADP and AA (platelets [1]; 5 mg/kg injection, all three time points): completely unresponsive
- Ex vivo anti-aggregation effect at low platelet count (platelets [1]; 5 mg/kg injection, platelet count ca. one-third of normal (104,000/ml vs. 361,000/ml)): more pronounced
- Effect on time to full coronary occlusion ([2]; 5 mg/kg bolus + 5 mg/kg/hr infusion, intra-atrial): significantly prolonged the time to occlusion
- Thrombus formation in animals with low platelet levels ([2]; 5 mg/kg, circulating platelet levels one-third of normal): able to prevent thrombus formation
- Effect on time to full coronary occlusion [2, 5]: completely prevented occlusion

Substance: VRGDSPDG
- IC50 [3]: 40 nM

Substance: YRGDSPDG
- IC50 [3]: 1100 nM

Substance: RPenGRGDWPCR
- Ex vivo reduction of aggregation relative to control levels (platelets [1]; one hour): 20-58%
- Ex vivo reduction of aggregation relative to control levels (platelets [1]; three and five hours, listed as 4R): 75-100% and 72-100%
- Ex vivo platelet response to all modes of stimulation (platelets [1]; 10 mg/kg injection, all time points): unresponsive to all modes of stimulation
- Effect on time to full coronary occlusion ([2]; 3 mg/kg): ineffective
- Effect on time to full coronary occlusion [2, 5]: prevented occlusion throughout the duration of the study

Substance: GPenGHRGDLRCA
- Ex vivo inhibition of ADP-stimulated aggregation (platelets [1]; 10 mg/kg injection, 1, 3 and 5 h): substantially inhibited
- Ex vivo inhibition of AA-stimulated aggregation relative to control levels (platelets [1]; [6]): 43-70%
- Ex vivo inhibition of collagen-stimulated aggregation relative to control levels (platelets [1]; [6]): 12-50%
- Ex vivo platelet response to ADP (platelets [4]): completely unresponsive
- Effect on time to full coronary occlusion [2, 5]: did not significantly influence
